Experiments:
[1] = system: Gram-negative reference strains; test: Checkerboard with PMB over the reference strains; assay type: cell-based; conditions: sub-inhibitory PMB
Protocol: MICs of NCL259 or NCL265 in the presence of the efflux pump inhibitor, PAβN were determined using a checkerboard assay. […] Briefly, a two-fold serial dilution of each antimicrobial solution was prepared in its appropriate solvent (e.g., DMSO for robenidine analogues and Milli-Q water for PAβN), and 1 μL of each dilution was added from wells 12 to 3 (12.8–0.25 μg/mL for robenidine analogues, and 32–2 μg/mL for PAβN). Thereafter, 89 μL of LB broth was added to each well followed by the addition of 10 μL of bacterial suspension (1–5 × 10^6 CFU/mL) to each well. In this manner, the final concentration of DMSO in each well was 1%. The plate was subsequently incubated at 37 °C for 24 h. The resazurin assay was used for assessment of drug susceptibility of NCL259 and NCL265 (Supplementary Table S1–S6). The same method was also used to test the MICs of NCL259 or NCL265 in the presence of PMB against a range of Gram-negative reference strains (E. coli ATCC 25922, E. coli ATCC 10763, P. aeruginosa PAO1, P. aeruginosa ATCC 27853, A. baumannii ATCC 12457, A. baumannii ATCC 19606, K. pneumoniae ATCC 4352 and K. pneumoniae ATCC 33495). […] The interaction of two antibiotics was calculated as the fractional inhibitory concentration index (FICI) using the following formula:(1) FICI=MICA in combination/MICA alone+MICB in combination/MICB alone where A is NCL259 or NCL265 and B is PAβN or PMB. […]

[2] = system: E. coli ATCC 10763; test: MIC, broth micro-dilution; assay type: cell-based, Escherichia coli; conditions: Escherichia coli, ATCC10763, read-out: MIC, Single Drug
Protocol: (§1) A variety of Gram-negative reference strains (E. coli ATCC 25922, E. coli ATCC 10763, P. aeruginosa PAO1, P. aeruginosa ATCC 27853, A. baumannii ATCC 12457, A. baumannii ATCC 19606, K. pneumoniae ATCC 4352 and K. pneumoniae ATCC 33495) were used for initial screening and combination testing with PMB. The organisms were speciated using biochemical testing and MALDI-TOF mass spectrometry (Bruker, Preston, VIC, Australia). Activity testing of NCL259 and NCL265 was also carried out on 51 extraintestinal clinical E. coli isolates from companion animals, and 83 porcine and bovine enterotoxigenic E. coli (ETEC) isolates from the Australian Centre for Antimicrobial Resistance Ecology collection. E. coli wild-type (BW 25113) and its mutant BW 25113∆AcrB, in which the inner membrane component AcrB of the tripartite multidrug efflux system AcrA/AcrB/TolC has been deleted, were obtained from the bacterial collection held at Health and Biomedical Innovation, Clinical and Health Sciences, The University of South Australia. All isolates were cultured on sheep blood agar (SBA) plates at 37 °C for 18 h before being subcultured into Luria Bertaini (LB) (Oxoid, Scoresby, VIC, Australia) broth and grown to A600nm = 0.5 (equivalent to approx. 1.5 × 10^8 colony-forming units (CFU)/mL).
(§2) MICs for NCL259 and NCL265 (serial two-fold dilutions commencing at 256 µg/mL) were determined (in duplicate) in round bottom 96–well microtitre trays (Sarstedt 82.1582.001), using the broth micro-dilution method recommended by the Clinical and Laboratory Standards Institute (CLSI). We have shown previously that robenidine can chelate calcium ions from cation-adjusted Mueller-Hinton broth, which causes the loss of activity of robenidine. Therefore, LB broth was used in this study. Additionally, considering the low solubility of robenidine and its analogues in aqueous solutions, two-fold serial dilutions of stock solutions of these compounds were prepared in 100% DMSO [21]. The MIC for ampicillin against each isolate was determined for each test to serve as an internal quality control. The MICs of isolates were determined by visual reading and using an EnSpire Multimode Plate Reader 2300 at A600nm.

[3] = system: E. coli ATCC 25922; test: MIC, broth micro-dilution; assay type: cell-based, Escherichia coli; conditions: Escherichia coli, ATCC25922, read-out: MIC, Single Drug
Protocol: as §1, §2

[4] = system: E. coli BW 25113 (∆AcrB); test: MIC, efflux-pump mutant; assay type: cell-based, Escherichia coli; conditions: for reduction of MIC in the ∆AcrB mutant compared to wild-type: E. coli BW 25113 ∆AcrB vs wild-type parent; for MIC: Escherichia coli, read-out: MIC Values
Protocol: as §1, §2

[5] = system: E. coli-type strains ATCC 11229 and ATCC 25922; design: method as in PMID 30318716, PMID 31312589; conditions: E. coli ATCC 11229 and ATCC 25922; cited from earlier work
[6] = system: E. coli ATCC 25922; conditions: cited from earlier work; for reduction in CFU (bactericidal): E. coli ATCC 25922, after 30 min treatment; for reduction of colony forming units: within 20 min at the MIC
[7] = system: K. pneumoniae ATCC 4352; design: method as in PMID 30318716; conditions: after 30 min treatment; cited from earlier work
[8] = system: K. oxytoca 13GNB–582; test: Checkerboard assay with PAβN; assay type: cell-based; conditions: for concentration at the marked interaction: resazurin
Protocol: (§3) MICs of NCL259 or NCL265 in the presence of the efflux pump inhibitor, PAβN were determined using a checkerboard assay. […] Briefly, a two-fold serial dilution of each antimicrobial solution was prepared in its appropriate solvent (e.g., DMSO for robenidine analogues and Milli-Q water for PAβN), and 1 μL of each dilution was added from wells 12 to 3 (12.8–0.25 μg/mL for robenidine analogues, and 32–2 μg/mL for PAβN). Thereafter, 89 μL of LB broth was added to each well followed by the addition of 10 μL of bacterial suspension (1–5 × 10^6 CFU/mL) to each well. In this manner, the final concentration of DMSO in each well was 1%. The plate was subsequently incubated at 37 °C for 24 h. The resazurin assay was used for assessment of drug susceptibility of NCL259 and NCL265 (Supplementary Table S1–S6). The same method was also used to test the MICs of NCL259 or NCL265 in the presence of PMB against a range of Gram-negative reference strains (E. coli ATCC 25922, E. coli ATCC 10763, P. aeruginosa PAO1, P. aeruginosa ATCC 27853, A. baumannii ATCC 12457, A. baumannii ATCC 19606, K. pneumoniae ATCC 4352 and K. pneumoniae ATCC 33495). Stock solutions were prepared prior to use (25.6–0.25 mg/mL for robenidine analogues; 12.8–0.25 mg/mL for PMB). The interaction of two antibiotics was calculated as the fractional inhibitory concentration index (FICI) using the following formula:(1) FICI=MICA in combination/MICA alone+MICB in combination/MICB alone where A is NCL259 or NCL265 and B is PAβN or PMB. According to FICI calculations, the interaction between two compounds were interpreted as follows: synergistic (FICI ≤ 0.5); additive or partially synergistic (0.5 < FICI ≤ 1); indifferent (1 < FICI ≤ 4); and antagonistic (FICI > 4), as described previously. The dose reduction index (DRI) was used to describe the difference between the effective doses of NCL259 or NCL265 in combination with PMB or PAβN in comparison to their individual doses, using the following formula:(2) DRI=MICA alone/MICA in combination
(§4) Evaluation of DRI is important clinically because it can allow the dose of a potentially toxic drug to be lowered in combination with another compound without reducing the drug’s efficacy. A DRI higher than 1 is viewed as beneficial.

[9] = system: E. coli ATCC 10763; test: Checkerboard assay with PMB; assay type: cell-based, Escherichia coli; conditions: for MIC, Combination: NCL259 or NCL265 with PMB; for Combination Effect / FICI: with PMB
Protocol: as §3, §4

[10] = system: E. coli ATCC 25922; test: Checkerboard assay with PMB; assay type: cell-based, Escherichia coli; conditions: for MIC, Combination: NCL259 or NCL265 with PMB; for Combination Effect / FICI: with PMB
Protocol: as §3, §4

[11] = K. oxytoca 13GNB–582, PAβN + NCL265
[12] = Table S6, NCL265 + PAβN, replicate 1
[13] = Table S6, NCL265 + PAβN, replicate 2
[14] = K. oxytoca 13GNB–582, PAβN + NCL259
[15] = Table S3, NCL259 + PAβN, replicate 1
[16] = Table S3, NCL259 + PAβN, replicate 2

Row | Structure (SMILES) | reduction of MIC in combination with PMB [1] | MIC [2] [µg/mL] | MIC [3] [µg/mL] | reduction of MIC in the ∆AcrB mutant compared to wild-type [4] [fold] | MIC [4] [µg/mL] | MBC [5] [µg/mL] | MIC [5] [µg/mL] | reduction in CFU (bactericidal) [6] [log 10] | reduction of colony forming units [6] [%] | reduction in CFU (bactericidal) [7] [log 10] | MIC, Combination [9] [µg/mL] | Combination Effect [9] | FICI [9] | MIC, Combination [10] [µg/mL] | Combination Effect [10] | FICI [10] | further results
1 | [H]/N=C(\N)NN=C(CCCCCC)c1ccc(Cl)cc1 [NCL265, (E)-2-(1-(4-chlorophenyl)heptylidene)hydrazine-1-carboximidamide] | 4- to 256 fold | 64 | 4 | 16 | 1 | 8 to 16 | 8 to 16 | > 5 | 100 | > 5 | 0.25 | Synergism (synergistic, FICI ≤ 0.5) | 0.254 | 1 | Additivity (additive or partially synergistic, 0.5 < FICI ≤ 1) | 0.75 | DRI PAβN:NCL265 ([8]; K. oxytoca 13GNB–582): 128; Combination Effect [8, 11]: Additivity (additive or partially synergistic, 0.5 < FICI ≤ 1); FICI [8, 11]: 0.508; MIC, Combination [8, 11]: 2 µg/mL; interaction [8, 12]: synergistic (synergistic (FICI ≤ 0.5)); interaction [8, 13]: synergistic (synergistic (FICI ≤ 0.5)); concentration at the marked interaction [8, 12]: 4 µg/mL; concentration at the marked interaction [8, 13]: 8 µg/mL; Dose Reduction Index (DRI) PMB:NCL265 ([9]; PMB + NCL265): 256; Dose Reduction Index (DRI) PMB:NCL265 ([10]; PMB + NCL265): 4
2 | [H]/N=C(\N)NN=C(CC1CCCCC1)c1ccc(Cl)cc1 [NCL259, (E)-2-(1-(4-chlorophenyl)-2-cyclohexylethylidene)hydrazine-1-carboximidamide] | 8- to 256 fold | 64 | 16 | 16 | 4 | 8 to 16 | 8 to 16 | > 5 | 100 | > 5 | 0.25 | Additivity (additive or partially synergistic, 0.5 < FICI ≤ 1) | 0.504 | 1 | Additivity (additive or partially synergistic, 0.5 < FICI ≤ 1) | 0.563 | DRI PAβN:NCL259 ([8]; K. oxytoca 13GNB–582): 32; Combination Effect [8, 14]: Synergism (synergistic, FICI ≤ 0.5); FICI [8, 14]: 0.281; MIC, Combination [8, 14]: 8 µg/mL; interaction [8, 15]: synergistic (synergistic (FICI ≤ 0.5)); interaction [8, 16]: synergistic (synergistic (FICI ≤ 0.5)); concentration at the marked interaction [8, 15]: 8 µg/mL; concentration at the marked interaction [8, 16]: 8 µg/mL; Dose Reduction Index (DRI) PMB:NCL259 ([9]; PMB + NCL259): 256; Dose Reduction Index (DRI) PMB:NCL259 ([10]; PMB + NCL259): 16

— paper PMC9598656, “In Vitro Activity of Robenidine Analogues NCL259 and NCL265 against Gram-Negative Pathogens” (Antibiotics, 2022)
